Source: US20210345613A1, “HERBICIDAL PYRIMIDINE COMPOUNDS” (BASF SE, priority 2016, published 2021)

How the values were obtained:
Format in all cases: in vivo
Echinocloa crus-galli [1] = experiment: greenhouse herbicidal test, pre-emergence treatment; settings: pre-emergence method, application rate 2000 g/ha, scale from 0 to 100, test period 2 to 4 weeks
Source text: (§1) The seeds of the test plants were sown separately for each species. For the pre-emergence treatment, the active ingredients, which had been suspended or emulsified in water, were applied directly after sowing by means of finely distributing nozzles. The containers were irrigated gently to promote germination and growth and subsequently covered with transparent plastic hoods until the plants had rooted. This cover caused uniform germination of the test plants, unless this had been impaired by the active ingredients. Depending on the species, the plants were kept at 10-25° C. or 20-35° C., respectively. The test period extended over 2 to 4 weeks. During this time, the plants were tended, and their response to the individual treatments was evaluated. Evaluation was carried out using a scale from 0 to 100. 100 means no emergence of the plants, or complete destruction of at least the aerial moieties, and 0 means no damage, or normal course of growth. A good herbicidal activity is given at values of at least 70 and a very good herbicidal activity is given at values of at least 85. The plants used in the greenhouse experiments were of the following species: [table]

Apera spica-venti = experiment: as above; settings: pre-emergence method, application rate 2000 g/ha, scale from 0 to 100, test period 2 to 4 weeks
Source text: as §1

Setaria viridis = experiment: greenhouse herbicidal test, post-emergence treatment; settings: post-emergence method, application rate 2000 g/ha, scale from 0 to 100, test period 2 to 4 weeks
Source text: (§2) The seeds of the test plants were sown separately for each species. For the post-emergence treatment, the test plants were first grown to a height of 3 to 15 cm, depending on the plant habit, and only then treated with the active ingredients which had been suspended or emulsified in water. For this purpose, the test plants were either sown directly and grown in the same containers, or they were first grown separately as seedlings and transplanted into the test containers a few days prior to treatment. Depending on the species, the plants were kept at 10-25° C. or 20-35° C., respectively. The test period extended over 2 to 4 weeks. During this time, the plants were tended, and their response to the individual treatments was evaluated. Evaluation was carried out using a scale from 0 to 100. 100 means no emergence of the plants, or complete destruction of at least the aerial moieties, and 0 means no damage, or normal course of growth. A good herbicidal activity is given at values of at least 70 and a very good herbicidal activity is given at values of at least 85. The plants used in the greenhouse experiments were of the following species: [table]

Alopecurus myosuroides = experiment: as above; settings: post-emergence method, application rate 2000 g/ha, scale from 0 to 100, test period 2 to 4 weeks
Source text: as §2

Avena fatua = experiment: as above; settings: post-emergence method, application rate 2000 g/ha, scale from 0 to 100, test period 2 to 4 weeks
Source text: as §2

Echinocloa crus-galli [2] = experiment: as above; settings: post-emergence method, application rate 2000 g/ha, scale from 0 to 100, test period 2 to 4 weeks
Source text: as §2

ABUTH = experiment: as above; settings: post-emergence method, application rate 2000 g/ha, scale from 0 to 100, test period 2 to 4 weeks
Source text: as §2, with “85.” for “85. The plants used in the greenhouse experiments were of the following species: [table]”

Amaranthus retroflexus = experiment: as above; settings: post-emergence method, application rate 2000 g/ha, scale from 0 to 100, test period 2 to 4 weeks
Source text: as §2

Compound | herbicidal activity against ECHCG (Echinocloa crus-galli [1]) | herbicidal activity against APESV (Apera spica-venti) | herbicidal activity against SETVI (Setaria viridis) | herbicidal activity against ALOMY (Alopecurus myosuroides) | herbicidal activity against AVEFA (Avena fatua) | herbicidal activity against ECHCG (Echinocloa crus-galli [2]) | herbicidal activity against ABUTH (ABUTH) | herbicidal activity against AMARE (Amaranthus retroflexus)
OC(Cc1nc(C2CC2)ncc1-c1ncccc1Cl)c1ccco1 (centres unmarked) [Ex.24] | very good (a very good herbicidal activity is given at values of at least 85) | very good (a very good herbicidal activity is given at values of at least 85) | good (A good herbicidal activity is given at values of at least 70) | very good (a very good herbicidal activity is given at values of at least 85) | good (A good herbicidal activity is given at values of at least 70) | – | – | –
Cc1occc1-c1nc(C2CC2)ncc1-c1ncccc1Br [Ex.12] | – | very good (a very good herbicidal activity is given at values of at least 85) | – | good (A good herbicidal activity is given at values of at least 70) | good (A good herbicidal activity is given at values of at least 70) | good (A good herbicidal activity is given at values of at least 70) | – | –
Clc1cccnc1-c1cnc(C2CC2)nc1C=Cc1ccccc1 [Ex.37] | – | – | very good (a very good herbicidal activity is given at values of at least 85) | – | – | – | very good (a very good herbicidal activity is given at values of at least 85) | very good (a very good herbicidal activity is given at values of at least 85)
Clc1cccnc1-c1cnc(C2CC2)nc1-c1ccoc1 [Ex.27] | very good (a very good herbicidal activity is given at values of at least 85) | very good (a very good herbicidal activity is given at values of at least 85) | – | very good (a very good herbicidal activity is given at values of at least 85) | very good (a very good herbicidal activity is given at values of at least 85) | very good (a very good herbicidal activity is given at values of at least 85) | – | –
Cc1occc1-c1nc(C2CC2)ncc1-c1ncccc1Cl [Ex.34] | very good (a very good herbicidal activity is given at values of at least 85) | very good (a very good herbicidal activity is given at values of at least 85) | – | very good (a very good herbicidal activity is given at values of at least 85) | good (A good herbicidal activity is given at values of at least 70) | – | – | very good (a very good herbicidal activity is given at values of at least 85)
CCOC(=O)C(C)c1nc(C2CC2)ncc1-c1ncccc1Cl (centres unmarked) [Ex.21] | – | good (A good herbicidal activity is given at values of at least 70) | – | – | – | very good (a very good herbicidal activity is given at values of at least 85) | – | good (A good herbicidal activity is given at values of at least 70)
OC(Cc1nc(C2CC2)ncc1-c1ncccc1Cl)c1cccs1 (centres unmarked) [Ex.33] | – | – | – | – | – | good (A good herbicidal activity is given at values of at least 70) | – | very good (a very good herbicidal activity is given at values of at least 85)
Clc1cccnc1-c1cnc(C2CC2)nc1/C=C/c1ccco1 [Ex.25] | very good (a very good herbicidal activity is given at values of at least 85) | very good (a very good herbicidal activity is given at values of at least 85) | very good (a very good herbicidal activity is given at values of at least 85) | very good (a very good herbicidal activity is given at values of at least 85) | – | very good (a very good herbicidal activity is given at values of at least 85) | – | –
Clc1cccnc1-c1cnc(C2CC2)nc1C=Cc1cccs1 [Ex.35] | very good (a very good herbicidal activity is given at values of at least 85) | very good (a very good herbicidal activity is given at values of at least 85) | very good (a very good herbicidal activity is given at values of at least 85) | very good (a very good herbicidal activity is given at values of at least 85) | good (A good herbicidal activity is given at values of at least 70) | – | – | –
Cc1nc(C)c(-c2nc(C3CC3)ncc2-c2ncccc2Cl)o1 [Ex.46] | very good (a very good herbicidal activity is given at values of at least 85) | very good (a very good herbicidal activity is given at values of at least 85) | very good (a very good herbicidal activity is given at values of at least 85) | – | very good (a very good herbicidal activity is given at values of at least 85) | very good (a very good herbicidal activity is given at values of at least 85) | – | –
Clc1cccnc1-c1cnc(C2CC2)nc1C=C1CCCC1 [Ex.28] | very good (a very good herbicidal activity is given at values of at least 85) | very good (a very good herbicidal activity is given at values of at least 85) | – | very good (a very good herbicidal activity is given at values of at least 85) | good (A good herbicidal activity is given at values of at least 70) | very good (a very good herbicidal activity is given at values of at least 85) | – | –
CC(O)Cc1nc(C2CC2)ncc1-c1ncccc1Cl (centres unmarked) [Ex.29] | very good (a very good herbicidal activity is given at values of at least 85) | very good (a very good herbicidal activity is given at values of at least 85) | very good (a very good herbicidal activity is given at values of at least 85) | – | – | – | good (A good herbicidal activity is given at values of at least 70) | –
CCOC(=O)Cc1nc(C2CC2)ncc1-c1ncccc1Cl [Ex.20] | very good (a very good herbicidal activity is given at values of at least 85) | – | – | very good (a very good herbicidal activity is given at values of at least 85) | very good (a very good herbicidal activity is given at values of at least 85) | very good (a very good herbicidal activity is given at values of at least 85) | – | –
Cc1ccoc1-c1nc(C2CC2)ncc1-c1ncccc1Br [Ex.18] | – | – | – | – | very good (a very good herbicidal activity is given at values of at least 85) | good (A good herbicidal activity is given at values of at least 70) | – | –
Cc1ccc(-c2nc(C3CC3)ncc2-c2ncccc2Br)o1 [Ex.17] | very good (a very good herbicidal activity is given at values of at least 85) | very good (a very good herbicidal activity is given at values of at least 85) | – | – | very good (a very good herbicidal activity is given at values of at least 85) | – | – | –
CCOC(=O)C(C)(C)c1nc(C2CC2)ncc1-c1ncccc1Cl [Ex.22] | – | – | – | – | – | – | – | very good (a very good herbicidal activity is given at values of at least 85)
CCC(=O)Cc1nc(C2CC2)ncc1-c1ncccc1Cl [Ex.44] | very good (a very good herbicidal activity is given at values of at least 85) | very good (a very good herbicidal activity is given at values of at least 85) | – | very good (a very good herbicidal activity is given at values of at least 85) | – | – | – | good (A good herbicidal activity is given at values of at least 70)
